System: Eschericia coli strain ATCC25922
Assay: standard microdilution assay to determine minimum inhibitory concentrations (MICs)
Type: cell-based
Conditions: Escherichia coli, ATCC25922, Eschericia coli strain ATCC25922, standard microdilution assay; read-out: E. coli ATCC25922 MIC
In short: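 Broth microdilution per CLSI protocols, typically 100 µL final volume, against E. coli ATCC25922. MIC values scored as +/− against a cutoff of 16 micrograms/ml.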

Compound	MIC [µg/mL]
NCCCN(CCCN)Cc1ccc(-c2c[nH]c(Nc3nc4cc(C(F)(F)F)ccc4s3)nc2=O)cc1F [Compound 357]	> 16
O=C(O)CCNCc1ccc(-c2c[nH]c(NC(=O)Nc3cc(F)c(F)cc3F)nc2=O)cc1 [Compound 315]	> 16
Nc1ccn(CCC[C@@H](N)CCCOCc2ccccc2)c(=O)n1 [Compound 119]	> 16
N=C(N)NCCCNCc1ccc(-c2c[nH]c(NC(=O)NC3CCN(Cc4cc(F)c(F)cc4F)C3)nc2=O)cc1 (stereo not drawn) [Compound 735]	> 16
CN1CCN(c2ccc(NC(=O)Nc3nc(=O)c(-c4ccc(CN(CCCN)CCCN)cc4)c[nH]3)cc2)CC1 [Compound 191]	< 16
CC(C)=CCN(CCCN)Cc1ccc(-c2c[nH]c(NC(=O)Nc3ccccc3OC(F)(F)F)nc2=O)cc1 [Compound 304]	< 16
Cc1cc(CNCCCN)ccc1-c1c[nH]c(NC(=O)Nc2ccccc2OC(F)(F)F)nc1=O [Compound 500]	< 16
N=C(N)NCCCN(CCCN)Cc1ccc(-c2c[nH]c(NC(=O)Nc3cc(Cl)cc(Cl)c3)nc2=O)cc1 [Compound 453]	< 16
NCCCNCc1ccc(-c2c[nH]c(NC(=O)Nc3cc(N)ccc3Cl)nc2=O)cc1F [Compound 483]	> 16
N=C(N)NCCCN1CCN(c2c[nH]c(NC(=O)Nc3ccccc3OC(F)(F)F)nc2=O)CC1 [Compound 422]	> 16
O=C(Nc1nc(=O)c(-c2ccc(CNCc3ccncc3)cc2)c[nH]1)Nc1ccccc1OC(F)(F)F [Compound 319]	> 16
NCCCNCc1ccc(-c2c[nH]c(NC(=O)NCCc3c(Cl)cccc3Cl)nc2=O)cc1F [Compound 437]	> 16
Cn1ncc(C(=O)Nc2ccn(CCC[C@H](CCCNC(=N)N)NCCCN)c(=O)n2)c1Cl [Compound 163]	< 16
N=C(N)NCCCNCc1ccc(-c2c[nH]c(NC(=O)NC3CN(C(=O)c4cc(F)cc(F)c4F)C3)nc2=O)cc1 [Compound 780]	> 16
CN1CCN(c2ccc(NC(=O)Nc3ccn(-c4ccc(CN(CCCN)CCCNC(=N)N)cc4)c(=O)n3)cc2)CC1 [Compound 222]	< 16
N=C(N)NCCCN(CCCN)Cc1ccc(-c2c[nH]c(NC(=O)NCCc3c(Cl)cccc3Cl)nc2=O)cc1 [Compound 477]	> 16
N#Cc1ccc(NC(=O)Nc2nc(=O)c(-c3ccc(CNCCCN)c(F)c3)c[nH]2)cc1 [Compound 386]	> 16
NCCCNCc1ccc(-c2c[nH]c(NC(=O)Nc3cccc(Cl)c3F)nc2=O)cc1F [Compound 450]	< 16
N=C(N)NCCC[C@@H](CCCn1ccc(NC(=O)Nc2ccc(F)cc2)nc1=O)NCCCN [Compound 148]	> 16
CN(C)C(=O)CN1CCN(c2ccc(NC(=O)Nc3nc(=O)c(-c4ccc(CN(CCCN)CCCN)cc4)c[nH]3)cc2)CC1 [Compound 211]	> 16
N=C(N)NCCCCNC1CCN(c2c[nH]c(NC(=O)Nc3ccccc3OC(F)(F)F)nc2=O)CC1 [Compound 605]	> 16

Compound	MIC [µg/mL]
CN(C(=O)C[C@H](CCCNC(=N)N)NCCCCNC(=N)N)C1CNC(NC(N)=O)=NC1=O (stereo partly drawn) [Compound 109]	< 16
N=C(N)NCc1cn(-c2ccc(-n3ccc(NC(N)=O)nc3=O)cc2)nn1 [Compound 141]	> 16
O=C(O)CCCNCc1ccc(-c2c[nH]c(NC(=O)Nc3ccccc3OC(F)(F)F)nc2=O)cc1 [Compound 328]	> 16
N=C(N)NCCC[C@H](N)CCCn1cnc(NC(N)=O)nc1=O [Compound 133]	> 16
N=C(N)NCc1ccc(-n2ccc(NC(N)=O)nc2=O)cc1 [Compound 126]	> 16
O=C(Nc1nc(=O)c(-c2ccc(CNCC3CC3)cc2)c[nH]1)Nc1cc(F)c(F)cc1F [Compound 275]	> 16
CN(C(=O)C[C@H](CCCNC(=N)N)NC(=O)CCO)C1CNC(NC(N)=O)=NC1=O (stereo partly drawn) [Compound 104]	> 16
NCCCN(CCC(=O)O)Cc1ccc(-c2c[nH]c(NC(=O)Nc3ccccc3OC(F)(F)F)nc2=O)cc1 [Compound 321]	> 16
NCCCCCN1CCN(c2c[nH]c(Nc3nc4ccccc4[nH]3)nc2=O)CC1 [Compound 514]	> 16
N=C(N)NCCCN(CCCN)Cc1ccc(-n2ccc(NC(=O)Nc3ccc(F)c(F)c3)nc2=O)cc1 [Compound 223]	> 16
NCCCNCc1ccc(-c2c[nH]c(NCCc3nc4cc(F)c(F)cc4[nH]3)nc2=O)cc1F [Compound 607]	> 16
NCCCNCc1ccc(-c2c[nH]c(NC(=O)Nc3cc(F)c(F)cc3F)nc2=O)cc1F [Compound 265]	> 16
NCCCNCc1ccc(-c2c[nH]c(Nc3ccc(C(F)(F)F)cc3)nc2=O)cc1C(F)(F)F [Compound 382]	< 16
CC(N)(CO)C(=O)Nc1ccc(C(=O)Nc2ccn(CCC[C@H](CCCNC(=N)N)NCCCN)c(=O)n2)cc1 (stereo partly drawn) [Compound 199]	< 16
N=C(N)NCCCN(CCCN)Cc1ccc(-c2c[nH]c(NC(N)=O)nc2=O)cc1 [Compound 168]	< 16
O=C(Nc1nc(=O)c(-c2ccc(CNCc3nccs3)cc2)c[nH]1)Nc1ccccc1OC(F)(F)F [Compound 291]	> 16
N=C(N)NCCC[C@@H](CCCn1ccc(NC(=O)c2ccc(Cl)cc2)nc1=O)NCCCN [Compound 155]	> 16
NCCCN(CCC1CC1)Cc1ccc(-c2c[nH]c(NC(=O)Nc3cc(F)c(F)cc3F)nc2=O)cc1 [Compound 401]	< 16
NC(=O)NCCCNCc1ccc(-c2c[nH]c(NC(=O)Nc3ccccc3OC(F)(F)F)nc2=O)cc1 [Compound 374]	> 16
NCCCN(CCCN)Cc1ccc(-c2c[nH]c(NC(=O)Nc3ccccc3OC(F)(F)F)nc2=O)cc1F [Compound 308]	< 16

Now from value to molecule:

MIC [µg/mL]	Compound
> 16	NCCCN(CCCO)Cc1ccc(-c2c[nH]c(NC(=O)Nc3cc(F)c(F)cc3F)nc2=O)cc1 [Compound 331]
> 16	N=C(N)NCCCCCN1CCN(c2c[nH]c(NC(=O)Nc3cccc(Cl)c3F)nc2=O)CC1 [Compound 502]
> 16	NCc1ccc(-n2ccc(NC(N)=O)nc2=O)cc1 [Compound 139]
> 16	NCCCN(CCCN)Cc1ccc(-c2c[nH]c(NC(=O)c3ccc(Cl)cc3)nc2=O)cc1 [Compound 173]
> 16	NCCCNCc1ccc(-c2c[nH]c(NC(=O)Nc3c(Cl)cccc3Cl)nc2=O)cc1F [Compound 479]
< 16	NCCCN(Cc1ccncc1)Cc1ccc(-c2c[nH]c(NC(=O)Nc3ccccc3OC(F)(F)F)nc2=O)cc1 [Compound 338]
> 16	NCc1cn(-c2ccc(-n3cnc(NC(N)=O)nc3=O)cc2)nn1 [Compound 140]
< 16	CN(C(=O)C[C@H](CCCNC(=N)N)NCCCN)C1CNC(NC(N)=O)=NC1=O (stereo partly drawn) [Compound 106]
> 16	NCCC[C@H](N)CCCN1CCC(NC(N)=O)NC1=O (stereo partly drawn) [Compound 135]
> 16	N=C(N)NCCC[C@H](N)CC(=O)N(CCCc1cocn1)C1CNC(NC(N)=O)=NC1=O (stereo partly drawn) [Compound 112]
> 16	N=C(N)NCCCC[C@@H](N)CCn1ccc(NC(N)=O)nc1=O [Compound 124]
< 16	NCCCN(CCCN)Cc1ccc(-c2c[nH]c(Nc3nc4cc(F)c(F)cc4[nH]3)nc2=O)cc1 [Compound 468]
> 16	NCCCNCc1ccc(-c2c[nH]c(NC(=O)NCc3nc4ccccc4[nH]3)nc2=O)cc1F [Compound 556]
> 16	N=C(N)NCCCC(CCCN)Cc1ccc(-c2c[nH]c(NC(=O)NCCc3cccc(Cl)c3)nc2=O)cc1 (stereo not drawn) [Compound 466]
< 16	N=C(N)NCCCNCc1ccc(-c2c[nH]c(NC(=O)NC3CN(C(=O)Nc4cc(F)c(F)cc4F)C3)nc2=O)cc1 [Compound 747]
> 16	C[S+]([O-])CCCNCc1ccc(-c2c[nH]c(NC(=O)Nc3cc(F)c(F)cc3F)nc2=O)cc1 (stereo not drawn) [Compound 302]
> 16	Cn1ccnc1CN(CCCN)Cc1ccc(-c2c[nH]c(NC(=O)Nc3cc(F)c(F)cc3F)nc2=O)cc1 [Compound 336]

MIC [µg/mL]	Compound
< 16	CN1CCN(c2ccc(NC(=O)Nc3ccn(CCCC(CCCNC(=N)N)NCCCN)c(=O)n3)cc2)CC1 (stereo not drawn) [Compound 185]
> 16	NCCCN(CCC1CC1)Cc1ccc(-c2c[nH]c(NC(=O)Nc3ccccc3OC(F)(F)F)nc2=O)cc1 [Compound 397]
> 16	CN(C(=O)C[C@H](CCCNC(=N)N)NC(=O)CCCN)C1CNC(NC(N)=O)=NC1=O (stereo partly drawn) [Compound 102]
> 16	NCCCN(CCCc1cccnc1)Cc1ccc(-c2c[nH]c(NC(=O)Nc3cc(F)c(F)cc3F)nc2=O)cc1 [Compound 399]
> 16	N=C(N)NCCC[C@@H](CCCn1ccc(NC(N)=O)nc1=O)NCCCN [Compound 130]
> 16	NCCCNCc1ccc(-c2c[nH]c(NC(=O)Nc3ccc(Cl)c(C(F)(F)F)c3)nc2=O)cc1F [Compound 459]
> 16	CSCCNCc1ccc(-c2c[nH]c(NC(=O)Nc3cc(F)c(F)cc3F)nc2=O)cc1Cl [Compound 268]
> 16	O=C(Nc1nc(=O)c(-c2ccc(CNCCCc3cccnc3)cc2)c[nH]1)Nc1ccccc1OC(F)(F)F [Compound 364]
> 16	NCCCNCc1ccc(-c2c[nH]c(NC(=O)NC3CN(Cc4cc(F)c(F)cc4F)C3)nc2=O)cc1 [Compound 710]
> 16	NCCCNCc1ccc(-c2c[nH]c(NC(=O)Nc3ccc(F)c(C(F)(F)F)c3)nc2=O)cc1F [Compound 413]
> 16	Cc1ncc(-c2cccc(NC(=O)Nc3nc(=O)c(-c4ccc(CNCCCN)c(F)c4)c[nH]3)c2)s1 [Compound 446]
> 16	Cn1ccnc1CNCc1ccc(-c2c[nH]c(NC(=O)Nc3cc(F)c(F)cc3F)nc2=O)cc1 [Compound 299]
> 16	NCCCN1CCC[C@@H](NC(=O)Nc2nc(=O)c(-c3ccc(CN)cc3)c[nH]2)C1 [Compound 1304]
> 16	N=C(N)NCCC[C@@H](CCCn1ccc(NC(=O)Nc2ccc(F)cc2F)nc1=O)NCCCN [Compound 159]
> 16	CSc1ccc(C(=O)Nc2ccn(CCCC(CCCNC(=N)N)NCCCN)c(=O)n2)cc1 (stereo not drawn) [Compound 175]
> 16	N=C(N)NCCCCN1CCN(c2c[nH]c(NC(=O)Nc3ccccc3OC(F)(F)F)nc2=O)CC1 [Compound 534]
> 16	CN(C)CCN1CCN(c2ccc(C(=O)Nc3ccn(CCC[C@H](CCCNC(=N)N)NCCCN)c(=O)n3)cc2)CC1 [Compound 213]
